Source: patent US20100062995A1, “Transition state structure of human 5'methylthioadenosine phosphorylase” (priority 2006, published 2010)
Values joined by “and” are separate entries in the source; they are usually repeats but may differ in a detail not shown here. Equal entries are not always repeated. Marks after values point to notes of the source that are not given here.

Legend:
human MTAP [1] = biological target: T1, human MTAP (Homo sapiens, UniProt Q13126); experiment: Measurement of kinetic isotope effects on arsenolysis of MTA; format: biochemical; conditions: pH 7.5, arsenolysis of MTA; for KIE (experimental): corrected to 0% substrate depletion; for Intrinsic KIEs: observed KIE corrected for forward commitment
T1 construct: His6 (N); made in house; host or cells: E. coli (pQE32 vector)
T1 sequence (Q13126 1-283): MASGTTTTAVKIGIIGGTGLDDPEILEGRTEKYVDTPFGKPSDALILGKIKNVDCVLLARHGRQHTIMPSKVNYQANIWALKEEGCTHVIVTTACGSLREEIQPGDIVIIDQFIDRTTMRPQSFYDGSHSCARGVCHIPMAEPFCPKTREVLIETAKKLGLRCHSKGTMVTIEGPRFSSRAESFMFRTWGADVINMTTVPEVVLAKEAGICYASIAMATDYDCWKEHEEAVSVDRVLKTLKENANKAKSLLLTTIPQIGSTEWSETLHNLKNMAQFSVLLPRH
Experimental: Measurement of kinetic isotope effects. The KIEs were measured by mixing ^3H and ^14C labeled substrates with ^3H:^14C in 4:1 ratio. […] After 20-30% completion of the reaction, 750 μL of the reaction was resolved on charcoal-Sepharose (acid-washed powdered charcoal and Sepharose in 1:4 ratio made into a slurry in 1 mM 5-methylthioribose (MTR) and settled in Pasteur pipettes). The remainder of the reaction mixture was allowed to react to completion and then applied to the column. Columns were washed with 2 volumes of 1 mM MTR and radioactive methylthioribose was eluted with 6 volumes of 15 mM MTR containing 50% ethanol. Each 1.0 mL of eluate was mixed with 9.0 mL scintillation fluid and counted for at least 3 cycles at 10 minutes per cycle. The ^3H to ^14C ratio was determined for partial and complete reactions and the KIEs were corrected to 0% hydrolysis by the equation: […]
where f is the fraction of reaction progress and Rf and Ro are ratios of heavy to light isotope at partial and total completion of reaction, respectively.
Experimental kinetic isotope effects (KIEs) and commitment factors. […] To avoid kinetic complexity associated with the transition state analyses for reversible reactions, the KIEs for the human MTAP were measured on the physiologically irreversible reaction of arsenolysis. The products of arsenolysis are adenine and 5-methylthioribose 1-arsenate. Methylthioribose 1-arsenate is unstable and rapidly decomposes to form methylthioribose and arsenate.
Where ^T(V/K) is an observed tritium isotope effect, Cf is the forward commitment to catalysis. The intrinsic KIEs were obtained by correcting the observed KIEs (column 3, Table 1) for the forward commitment.

S. pneumoniae MTAN = S. pneumoniae MTAN (Streptococcus pneumoniae, UniProt Q8DQ16); conditions: S. pneumoniae MTAN (Singh et al., 2005a); cited from earlier work
Chain of S. pneumoniae MTAN (Q8DQ16 entry or part of it): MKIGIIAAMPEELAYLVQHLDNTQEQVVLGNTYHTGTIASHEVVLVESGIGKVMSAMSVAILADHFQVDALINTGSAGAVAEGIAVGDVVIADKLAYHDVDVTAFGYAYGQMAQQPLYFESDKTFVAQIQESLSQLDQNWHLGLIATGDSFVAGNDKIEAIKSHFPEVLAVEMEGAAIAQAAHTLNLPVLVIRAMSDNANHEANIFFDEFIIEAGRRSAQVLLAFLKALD

E. coli MTAN = E. coli MTAN (Escherichia coli, UniProt P0AF12); conditions: E. coli MTAN (Singh et al., 2005a); cited from earlier work
Chain of E. coli MTAN (P0AF12 whole entry): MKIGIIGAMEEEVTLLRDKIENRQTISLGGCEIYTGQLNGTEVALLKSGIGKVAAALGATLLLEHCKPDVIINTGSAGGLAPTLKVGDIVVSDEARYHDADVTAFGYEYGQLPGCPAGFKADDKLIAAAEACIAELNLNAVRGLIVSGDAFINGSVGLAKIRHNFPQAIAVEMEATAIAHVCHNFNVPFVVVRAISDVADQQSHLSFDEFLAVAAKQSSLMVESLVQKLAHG

human MTAP [2] = biological target: T1, human MTAP; conditions: cited from earlier work; for kcat: human MTAP (Kung et al., 2005); for fold increase in Km relative to MTA: human MTAP
human MTAP [3] = biological target: T1, human MTAP; experiment: Kinetic analysis with substrate analogues (kcat, Km); format: biochemical
Excerpt: Kinetic analysis with substrate analogues provide additional evidence concerning the importance of the 3′-hydroxyl in catalysis (Kung et al., 2005). […] The formation of an oxyanion from ionization of the 3′-hydroxyl further stabilizes the positive charge at the anomeric carbon.

[3H]C([3H])(SC)[C@H]1O[C@@H](n2cnc3c(N)ncnc32)[C@H](O)[C@@H]1O [[5′-^3H], [5′-^3H]MTA]
KIE (experimental) (human MTAP [1]): 1.038 ± 0.001
Intrinsic KIEs (human MTAP [1]): 1.046 ± 0.001
Intrinsic KIEs (human MTAP [1]; listed as [5′-^3H2] MTA): 1.046

[3H][C@]1(CSC)O[C@@H](n2cnc3c(N)ncnc32)[C@H](O)[C@@H]1O [[4′-^3H], [4′-^3H]MTA]
KIE (experimental) (human MTAP [1]): 1.037 ± 0.005
Intrinsic KIEs (human MTAP [1]): 1.045 ± 0.005
Intrinsic KIEs (human MTAP [1]; listed as 4′-^3H): 1.045
intrinsic 4′-^3H KIE (S. pneumoniae MTAN): 1.015
intrinsic 4′-^3H KIE (E. coli MTAN): 1.010

[3H][C@@]1(O)[C@H](O)[C@@H](CSC)O[C@H]1n1cnc2c(N)ncnc21 [[2′-^3H], [2′-^3H]MTA]
KIE (experimental) (human MTAP [1]): 1.063 ± 0.003
Intrinsic KIEs (human MTAP [1]): 1.076 ± 0.003
Intrinsic KIEs (human MTAP [1]; listed as 2′-^3H): 1.076

CSC[C@H]1O[C@@H](n2cnc3c(N)ncnc32)C[C@@H]1O [2′-deoxy MTA]
kcat (human MTAP [2]): 0.28 s⁻¹
fold increase in Km relative to MTA (human MTAP [2]): ~2 fold

[3H]C([3H])([3H])SC[C@H]1O[C@@H](n2cnc3c(N)ncnc32)[C@H](O)[C@@H]1O [[Me-^3H], [methyl-^3H3]MTA]
KIE (experimental) (human MTAP [1]): 1.073 ± 0.002
Intrinsic KIEs (human MTAP [1]): 1.086 ± 0.002
Intrinsic KIEs (human MTAP [1]; listed as [Me-^3H3] MTA): 1.086

CSC[C@@H]1C[C@@H](O)[C@H](n2cnc3c(N)ncnc32)O1 [3′-deoxy MTA]
fold decrease in kcat relative to MTA (human MTAP [3]): ~1000 fold
kcat (human MTAP [2]): 0.004 s⁻¹
fold increase in Km relative to MTA (human MTAP [2]): ~2 fold

CSC[C@H]1O[14C@@H](n2cnc3c(N)ncnc32)[C@H](O)[C@@H]1O [[1′-^14C], [1′-^14C]MTA]
KIE (experimental) (human MTAP [1]): 1.025 ± 0.005^b
Intrinsic KIEs (human MTAP [1]): 1.030 ± 0.005
Intrinsic KIEs (human MTAP [1]; listed as 1′-^14C): 1.029
Intrinsic KIEs (human MTAP [1]; listed as 1′-^14C MTA): 1.029

CS[14CH2][C@H]1O[C@@H]([15n]2cnc3c(N)ncnc32)[C@H](O)[C@@H]1O [[9-^15N/5′-^14C]]
KIE (experimental) (human MTAP [1]): 1.031 ± 0.002^c
Intrinsic KIEs (human MTAP [1]): 1.037 ± 0.002
Intrinsic KIEs (human MTAP [1]; listed as 9-^15N): 1.037 and 1.036
Intrinsic KIEs (human MTAP [1]; listed as 9-^15N MTA): 1.037
Intrinsic KIEs (human MTAP [1]; listed as 15N9): 1.036

[3H]C1(n2cnc3c(N)ncnc32)OC(CSC)C(O)C1O (stereo not shown) [[1′-^3H], [1′-^3H]MTA]
KIE (experimental) (human MTAP [1]): 1.290 ± 0.003
Intrinsic KIEs (human MTAP [1]): 1.350 ± 0.003
Intrinsic KIEs (human MTAP [1]; listed as 1′-^3H): 1.35
